Format in all cases: cell-based
Data set [1] concerns Candida glabrata (ATCC-90525). Description: Antifungal MIC, broth microdilution with MTT. The settings on record: most sensitive yeast. As to the method:
(§1) Candida glabrata (ATCC-90525), Candida parapsilosis (ATCC-20224), Candida krusei (ATCC-6258), Candida tropicalis (ATCC-20240), Candida albicans (ATCC-2048) were supplied by the Chinese Academy of Medical Sciences.
(§2) Minimum inhibitory concentrations (MICs) of CGA-N46 and its derivatives against fungi were measured according to a modified version of broth microdilution method of the Clinical and Laboratory Standards Institute (CLSI). Fungi cell’s viability was assessed based on the reduction of 3-[4,5-dimethylthiazolyl]-2,5-diphenyltetrazolium bromide (MTT) into formazan dye by active mitochondria. Briefly, peptides were serially twofold diluted in 20 mM PBS (pH 6.0) to a final concentration between 2 mg mL^−1 and 3.9 µg mL^−1. Subsequently, 100 μL samples was dispensed into the wells of a 96-U-shaped-well plate, and each was mixed with 100 μL of the 2 × inoculum suspension (1–5 × 10^4 CFU mL^−1) of a log-phase fungal culture in Sabouraud (SD) broth. Strains without treatment with peptides were used as negative control. The cultures were incubated at 30 °C without agitation for 16 h. 10 μL of MTT solution (5 mg mL^−1 MTT in PBS) was added to each well, and the plate was further incubated for 4 h. After rinsed, 100 μL of dimethylsulfoxide (DMSO) was added to dissolve the MTT formazan crystals. The inhibition of growth was determined by measuring the absorbance at 570 nm with a microplate reader. The relative cellular activity was calculated according to the following formula: cell survival inhibition rate (\% of control)= [(OD570of the negative sample-OD570of the treated sample) / OD570of the negative control]×100\%.
(§3) Each test was performed in triplicate, and the data were expressed as the mean ± SE.

Data set [2] deals with Human red blood cells (RBCs). As to the method:
Hemolytic activity was tested according to the method. Briefly, peptides were serially twofold diluted using PBS in 96-well plates to give a volume of 100 μL of the sample solution in each well, and the final concentration of peptides ranged between 2.0 mg mL^−1 and 3.9 μg mL^−1. Human red blood cells (RBCs) from a healthy volunteer were diluted to a concentration of 2 % in PBS. 100 μL of the RBC suspension was added to each well, and the reactions were incubated at 37 °C for 60 min, followed by 150 μL supernatant being transferred to a new 96-well plate (U-shaped well). The release of hemoglobin was determined by measuring the absorbance of the supernatant at 570 nm. RBCs in PBS and 0.1 % (v/v) Triton-X100 were used as the negative and positive controls, respectively. The percentage of hemolysis was calculated using the following formula: Hemolysis rate%=[(OD570of the treated sample-OD570of the negative control)/OD570of the positive control-OD570of the negative control]×100%. Each test was performed in triplicate, and the data were expressed as the mean ± SE.

The test system of data set [3] is Candida albicans (ATCC-2048). Briefly: Antifungal MIC, broth microdilution with MTT. The settings on record: most sensitive yeast. As to the method:
as §1, §2, §3

In data set [4] the test system is Candida krusei (ATCC-6258). Description: Antifungal MIC, broth microdilution with MTT. Conditions: most sensitive yeast. As to the method:
as §1, §2, §3

The subject of data set [5] is Candida tropicalis (ATCC-20240). Briefly: Antifungal MIC, broth microdilution with MTT. The settings on record: most sensitive yeast. As to the method: as §1, §2, §3

For the substance “H-LQDLALQGAKERAHQQ-OH [CGA-N16, NH2–LQDLALQGAKERAHQQ–COOH]”, in data set [1], the “MIC C. glabrata” value came out at 280 µM. Besides, in data set [2], the “5 % Hemolysis” value was determined as 0.056 mmol/L and the “hemolytic activity (in words)” value was “strong hemolytic activity”.

Regarding “H-GAKERAHQ-OH [CGA-N8, NH2–GAKERAHQ–COOH]”, the “MIC C. albicans” value in data set [3] was 240 µM. Moreover, in data set [4], the “MIC C. krusei” value was found to be 240 µM. For the same substance, in data set [2], the “5 % Hemolysis” value is 0.27 mmol/L and the “hemolytic activity (in words)” value is listed as “MIC was near the concentration of its 5 % hemolysis”.

Take “H-ALQGAKERAHQQ-OH [CGA-N12, NH2–ALQGAKERAHQQ–COOH]”: in data set [5], the “MIC C. tropicalis” value is 75 µM. In data set [2], the “5 % Hemolysis” value stood at 0.39 mmol/L and the “hemolytic activity (in words)” value was “weak hemolytic activity at the concentration of MIC”.

“H-ERILSILRHQNLLKE-OH [CGA-N15, NH2–ERILSILRHQNLLKE–COOH]”: in data set [5], the “MIC C. tropicalis” value came to 73 µM. Besides, in data set [2], the “5 % Hemolysis” value came out at 0.031 mmol/L and the “hemolytic activity (in words)” value is given as “strong hemolytic activity”.

Turning to “H-PMPVSQECFETLRGHERILSILRHQNLLKELQDLALQGAKERAHQQ-OH [CGA-N46]”, in data set [2], the “5 % Hemolysis” value was determined as 0.74 mmol/L and the “hemolytic activity (in words)” value is “weak hemolytic activity at the concentration of MIC”.
